Results published in doi:10.1101/2022.01.20.477145v2 (biorxiv, 2022).

Target: NL-PRMT5 (NLuc-PRMT5) (Homo sapiens, UniProt O14744)
Test: NanoBRET target engagement, displacement of CBH-002
Type: cell-based

NL-PRMT5 (NLuc-PRMT5), sequence (O14744 2-637): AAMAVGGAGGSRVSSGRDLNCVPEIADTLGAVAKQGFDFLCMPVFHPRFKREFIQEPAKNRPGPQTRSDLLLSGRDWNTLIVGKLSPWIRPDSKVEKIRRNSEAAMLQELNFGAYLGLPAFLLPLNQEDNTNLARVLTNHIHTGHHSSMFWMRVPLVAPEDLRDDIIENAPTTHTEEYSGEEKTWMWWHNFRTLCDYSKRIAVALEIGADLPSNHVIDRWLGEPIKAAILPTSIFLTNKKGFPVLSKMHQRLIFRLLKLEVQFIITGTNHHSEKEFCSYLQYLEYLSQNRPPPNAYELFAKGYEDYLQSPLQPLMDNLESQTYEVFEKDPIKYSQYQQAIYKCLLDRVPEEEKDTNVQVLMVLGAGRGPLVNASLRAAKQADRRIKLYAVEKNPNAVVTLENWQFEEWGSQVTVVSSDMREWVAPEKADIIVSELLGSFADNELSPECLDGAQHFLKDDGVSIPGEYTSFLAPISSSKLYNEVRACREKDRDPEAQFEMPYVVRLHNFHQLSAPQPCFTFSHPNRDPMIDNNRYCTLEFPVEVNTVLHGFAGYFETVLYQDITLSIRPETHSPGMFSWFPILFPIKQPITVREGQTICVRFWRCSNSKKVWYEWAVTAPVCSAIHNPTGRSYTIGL

EC50: 0.3 ± 0.1 µM
SMILES: Nc1ncnc2c1ccn2[C@@H]1O[C@H]([C@H](O)c2ccccc2)[C@@H](O)[C@H]1O [LLY-283]
